Experimental data reported in the supplement of paper PMC11061612.

Experiments:
[1] = tested on: CAMA-1 (Breast Carcinoma); test: combination Emax (second highest fraction inhibited in the dose matrix, 72 h); higher = more inhibition; extreme values may be limits of the assay
Procedure, shortened: (§1)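 Cell lines in DMEM/F12 or RPMI with 10% FBS were plated in 1536-well plates, held 24 hours at 37°C, 5% CO2, then given two-drug dose matrices for 72 hours (DMSO typically 0.2%). Viability was read by CellTiter-Glo 2.0 luminescence and scaled as inhibition from 0 (vehicle wells) to 1 (blank wells). Combination Emax is the second-highest inhibition in the matrix; Bliss excess is observed combination effect minus expected EA + EB − EA·EB, EA and EB being single-agent effects.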

[2] = tested on: NCI-H1792 (Lung Adenocarcinoma); test: as above
Procedure, shortened: as §1

[3] = tested on: BFTC-905 (Bladder Carcinoma); test: as above
Procedure, shortened: as §1

[4] = tested on: DND-41 (T-Lymphoblastic Leukemia); test: as above
Procedure, shortened: as §1

[5] = tested on: K-562 (Chronic Myelogenous Leukemia); test: as above
Procedure, shortened: as §1

[6] = tested on: ES1 (Ewing's Sarcoma); test: as above
Procedure, shortened: as §1

[7] = tested on: MKN28 (Gastric Carcinoma); test: as above
Procedure, shortened: as §1

[8] = tested on: SW837 (Colorectal Carcinoma); test: as above
Procedure, shortened: as §1

[9] = tested on: SR (Other Blood Carcinomas); test: as above
Procedure, shortened: as §1

[10] = tested on: WIL2-NS (Non-Cancerous); test: as above
Procedure, shortened: as §1

[11] = tested on: SW1417 (Colorectal Carcinoma); test: as above
Procedure, shortened: as §1

[12] = tested on: L-540 (Hodgkin's Lymphoma); test: as above
Procedure, shortened: as §1

[13] = tested on: BL-41 (Burkitt's Lymphoma); test: as above
Procedure, shortened: as §1

[14] = tested on: NCI-H2818 (Mesothelioma); test: as above
Procedure, shortened: as §1

[15] = tested on: GR-ST (B-Lymphoblastic Leukemia); test: as above
Procedure, shortened: as §1

[16] = tested on: WM-115 (Melanoma); test: as above
Procedure, shortened: as §1

[17] = tested on: ES8 (Ewing's Sarcoma); test: as above
Procedure, shortened: as §1

[18] = tested on: CAMA-1 (Breast Carcinoma); test: Bliss excess, mean over the matrix (fraction); higher = more synergy
Procedure, shortened: as §1

[19] = tested on: NCI-H1792 (Lung Adenocarcinoma); test: as above
Procedure, shortened: as §1

[20] = tested on: BFTC-905 (Bladder Carcinoma); test: as above
Procedure, shortened: as §1

[21] = tested on: DND-41 (T-Lymphoblastic Leukemia); test: as above
Procedure, shortened: as §1

[22] = tested on: K-562 (Chronic Myelogenous Leukemia); test: as above
Procedure, shortened: as §1

[23] = tested on: ES1 (Ewing's Sarcoma); test: as above
Procedure, shortened: as §1

[24] = tested on: MKN28 (Gastric Carcinoma); test: as above
Procedure, shortened: as §1

[25] = tested on: SW837 (Colorectal Carcinoma); test: as above
Procedure, shortened: as §1

[26] = tested on: SR (Other Blood Carcinomas); test: as above
Procedure, shortened: as §1

[27] = tested on: WIL2-NS (Non-Cancerous); test: as above
Procedure, shortened: as §1

[28] = tested on: SW1417 (Colorectal Carcinoma); test: as above
Procedure, shortened: as §1

[29] = tested on: L-540 (Hodgkin's Lymphoma); test: as above
Procedure, shortened: as §1

[30] = tested on: BL-41 (Burkitt's Lymphoma); test: as above
Procedure, shortened: as §1

[31] = tested on: NCI-H2818 (Mesothelioma); test: as above
Procedure, shortened: as §1

[32] = tested on: GR-ST (B-Lymphoblastic Leukemia); test: as above
Procedure, shortened: as §1

[33] = tested on: WM-115 (Melanoma); test: as above
Procedure, shortened: as §1

[34] = tested on: ES8 (Ewing's Sarcoma); test: as above
Procedure, shortened: as §1
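Wherever Bliss excess, mean over the matrix is given: after 72 h of two-drug dosing.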

Row | Structure (SMILES) | combination Emax [1] | combination Emax [2] | combination Emax [3] | combination Emax [4] | combination Emax [5] | combination Emax [6] | combination Emax [7] | combination Emax [8] | combination Emax [9] | combination Emax [10] | combination Emax [11] | combination Emax [12] | combination Emax [13] | combination Emax [14] | combination Emax [15] | combination Emax [16] | combination Emax [17] | Bliss excess [18] | Bliss excess [19] | Bliss excess [20] | Bliss excess [21] | Bliss excess [22] | Bliss excess [23] | Bliss excess [24] | Bliss excess [25] | Bliss excess [26] | Bliss excess [27] | Bliss excess [28] | Bliss excess [29] | Bliss excess [30] | Bliss excess [31] | Bliss excess [32] | Bliss excess [33] | Bliss excess [34]
1 | C=CCn1c(=O)c2cnc(Nc3ccc(N4CCN(C)CC4)cc3)nc2n1-c1cccc(C(C)(C)O)n1 [AZD1775] + CCc1c2c(nc3ccc(O)cc13)-c1cc3c(c(=O)n1C2)COC(=O)[C@]3(O)CC [SN-38] (first compound max 1 µM, partner max 0.3 µM) | 0.466 | 0.755 | 0.946 | 0.983 | 0.953 | 1 | 0.689 | 0.703 | 1 | 0.961 | 0.793 | 0.953 | 1 | 0.399 | 0.825 | 0.416 | 1 | 0.0473 | -0.0124 | -0.0133 | -0.0446 | 0.0873 | -0.0144 | 0.0317 | -0.0222 | 0.0049 | -0.0755 | -0.0298 | -0.0458 | -0.0252 | -0.063 | -0.0824 | -0.0252 | -0.0145
2 | C=CCn1c(=O)c2cnc(Nc3ccc(N4CCN(C)CC4)cc3)nc2n1-c1cccc(C(C)(C)O)n1 [AZD1775] + Nc1ccn([C@@H]2O[C@H](CO)[C@@H](O)C2(F)F)c(=O)n1 [Gemcitabine] (first compound max 1 µM, partner max 0.3 µM) | 0.534 | 0.878 | 0.836 | 0.943 | 0.869 | 1 | 0.552 | 0.691 | 1 | 0.973 | 0.663 | 0.968 | 1 | 0.44 | 0.855 | 0.459 | 1 | 0.0354 | -0.0287 | -0.0015 | 0.0256 | 0.0554 | 0.0471 | 0.0781 | 0.0269 | 0.0344 | 0.0149 | 0.0353 | 0.0052 | -0.0067 | -0.0333 | -0.0072 | 0.0368 | 0.0248
3 | CN(CCO)CC[C@H](CSc1ccccc1)Nc1ccc(S(=O)(=O)NC(=O)c2ccc(N3CCC([C@@H](O)c4ccccc4-c4ccc(Cl)cc4)CC3)cc2)cc1S(=O)(=O)C(F)(F)F [AZD4320] + CC(=O)O[C@H]1C(=O)[C@@]2(C)[C@H]([C@H](OC(=O)c3ccccc3)[C@]3(O)C[C@H](OC(=O)[C@H](O)[C@@H](NC(=O)c4ccccc4)c4ccccc4)C(C)=C1C3(C)C)[C@]1(OC(C)=O)CO[C@@H]1C[C@@H]2O [Paclitaxel] (first compound max 1 µM, 7x7, partner max 3 µM) | 0.843 | 0.986 | 0.989 | 1 | 0.981 | 0.984 | 0.738 | 0.878 | 1 | 0.942 | 0.864 | 0.974 | 1 | 0.745 | 0.839 | 0.851 | 1 | 0.119 | 0.0049 | 0.0384 | 0.187 | -0.0181 | -0.0272 | 0.0942 | 0.0777 | 0.0061 | -0.0331 | 0.0037 | 0.0162 | -0.0222 | 0.0844 | -0.0651 | 0.0811 | 0.0317
4 | CN(CCO)CC[C@H](CSc1ccccc1)Nc1ccc(S(=O)(=O)NC(=O)c2ccc(N3CCC([C@@H](O)c4ccccc4-c4ccc(Cl)cc4)CC3)cc2)cc1S(=O)(=O)C(F)(F)F [AZD4320] + CS(=O)(=O)CCNCc1ccc(-c2ccc3ncnc(Nc4ccc(OCc5cccc(F)c5)c(Cl)c4)c3c2)o1 [Lapatinib] (first compound max 1 µM, 7x7, partner max 10 µM) | 0.36 | 0.546 | 0.529 | 1 | 0.552 | 0.923 | 0.693 | 0.942 | 0.777 | 0.258 | 0.934 | 0.905 | 0.97 | 0.407 | 0.961 | 0.909 | 0.956 | 0.0048 | -0.0553 | 0.034 | 0.0603 | -0.03 | -0.0147 | -0.0128 | 0.0547 | 0.0765 | -0.0018 | 0.0238 | 0.137 | -0.0006 | -0.0332 | -0.0086 | 0.0604 | 0.121
5 | CN(CCO)CC[C@H](CSc1ccccc1)Nc1ccc(S(=O)(=O)NC(=O)c2ccc(N3CCC([C@@H](O)c4ccccc4-c4ccc(Cl)cc4)CC3)cc2)cc1S(=O)(=O)C(F)(F)F [AZD4320] + Nc1ccn([C@@H]2O[C@H](CO)[C@@H](O)C2(F)F)c(=O)n1 [Gemcitabine] (first compound max 1 µM, 7x7, partner max 0.3 µM) | 0.651 | 0.823 | 0.9 | 1 | 0.353 | 1 | 0.283 | 0.475 | 1 | 0.987 | 0.49 | 0.951 | 1 | 0.717 | 0.765 | 0.688 | 1 | 0.063 | 0.0469 | 0.0207 | 0.0375 | 0.0054 | -0.0239 | -0.0338 | -0.0331 | 0.053 | 0.0107 | -0.0377 | -0.0365 | -0.0094 | 0.0008 | -0.0009 | 0.0125 | 0.0312
6 | Cc1c2c(nn1C)CSCc1cc(n(C)n1)CSc1cc(c3ccccc3c1)OCCCc1c(C(=O)O)n(C)c3c-2c(Cl)ccc13 [AZD5991] + CC(=O)O[C@H]1C(=O)[C@@]2(C)[C@H]([C@H](OC(=O)c3ccccc3)[C@]3(O)C[C@H](OC(=O)[C@H](O)[C@@H](NC(=O)c4ccccc4)c4ccccc4)C(C)=C1C3(C)C)[C@]1(OC(C)=O)CO[C@@H]1C[C@@H]2O [Paclitaxel] (first compound max 1 µM, 7x7, partner max 3 µM) | 0.957 | 0.959 | 0.975 | 0.251 | 0.877 | 1 | 0.49 | 0.62 | 1 | 0.824 | 0.529 | 1 | 1 | 0.599 | 0.805 | 0.631 | 1 | 0.117 | -0.0037 | 0.0108 | 0.0348 | -0.0245 | -0.0419 | -0.011 | -0.0327 | 0.0191 | -0.137 | 0.0164 | 0.0087 | -0.0098 | -0.0054 | -0.0628 | -0.0392 | 0.0091
7 | Cc1c2c(nn1C)CSCc1cc(n(C)n1)CSc1cc(c3ccccc3c1)OCCCc1c(C(=O)O)n(C)c3c-2c(Cl)ccc13 [AZD5991] + CS(=O)(=O)CCNCc1ccc(-c2ccc3ncnc(Nc4ccc(OCc5cccc(F)c5)c(Cl)c4)c3c2)o1 [Lapatinib] (first compound max 1 µM, 7x7, partner max 10 µM) | 0.791 | 0.453 | 0.407 | 0.792 | 0.52 | 0.9 | 0.41 | 0.303 | 0.927 | 0.27 | 0.192 | 0.996 | 1 | 0.277 | 0.955 | 0.32 | 0.763 | -0.0054 | 0.0446 | 0.023 | -0.016 | 0.0139 | -0.0151 | -0.0112 | -0.0176 | 0.0023 | -0.118 | -0.0142 | 0.04 | -0.0004 | -0.0282 | 0.0082 | -0.0164 | 0.109
8 | N#Cc1cnc(Nc2cc(NC[C@H]3CNCCO3)c(C(F)(F)F)cn2)cn1 [SRA737] + CCc1c2c(nc3ccc(O)cc13)-c1cc3c(c(=O)n1C2)COC(=O)[C@]3(O)CC [SN-38] (first compound max 10 µM, 7x7, partner max 0.3 µM) | 0.393 | 0.889 | 0.912 | 0.974 | 0.977 | 1 | 0.552 | 0.805 | 1 | 0.982 | 0.803 | 0.938 | 1 | 0.337 | 0.836 | 0.421 | 1 | 0.0081 |  | -0.028 | -0.0573 | 0.138 | -0.0145 | 0.04 | 0.0267 | -0.0069 | -0.0262 | 0.019 | -0.0403 | -0.0272 | -0.0605 | -0.102 | -0.0968 | 0.0054
